Experimental data published in patent publication US9963434B2, “N-arylmethyl sulfonamide negative modulators of NR2A” (LUC THERAPEUTICS, priority 2013, dated 2018).
Read-outs that look alike come from different tables or passages of the source.

Target: NR1/NR2A (Homo sapiens (Human), UniProt Q05586+Q12879)
Assay: FDSS Ca2+ influx inhibition assay in HEK293 cells expressing NR1/NR2A
Type: cell-based
Settings: 3 μM glutamate, 3 μM glycine, 1 mM Ca2+
How it was run: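 Fluo-8-loaded HEK293 NR1/NR2A cells preincubated 10 min with compound at 10 μM final (0.1% DMSO) in Ca2+/Mg2+-free HBSS with 20 mM HEPES. Stimulated with 3 μM glutamate, 3 μM glycine, 1 mM Ca2+; FDSS recording for 3 min, end/baseline fluorescence ratio compared with MK801.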

[1] = inhibition relative to MK801, read-out: NR2A IC50

Sequence of NR1/NR2A (Q12879 23-1464, other chains not shown): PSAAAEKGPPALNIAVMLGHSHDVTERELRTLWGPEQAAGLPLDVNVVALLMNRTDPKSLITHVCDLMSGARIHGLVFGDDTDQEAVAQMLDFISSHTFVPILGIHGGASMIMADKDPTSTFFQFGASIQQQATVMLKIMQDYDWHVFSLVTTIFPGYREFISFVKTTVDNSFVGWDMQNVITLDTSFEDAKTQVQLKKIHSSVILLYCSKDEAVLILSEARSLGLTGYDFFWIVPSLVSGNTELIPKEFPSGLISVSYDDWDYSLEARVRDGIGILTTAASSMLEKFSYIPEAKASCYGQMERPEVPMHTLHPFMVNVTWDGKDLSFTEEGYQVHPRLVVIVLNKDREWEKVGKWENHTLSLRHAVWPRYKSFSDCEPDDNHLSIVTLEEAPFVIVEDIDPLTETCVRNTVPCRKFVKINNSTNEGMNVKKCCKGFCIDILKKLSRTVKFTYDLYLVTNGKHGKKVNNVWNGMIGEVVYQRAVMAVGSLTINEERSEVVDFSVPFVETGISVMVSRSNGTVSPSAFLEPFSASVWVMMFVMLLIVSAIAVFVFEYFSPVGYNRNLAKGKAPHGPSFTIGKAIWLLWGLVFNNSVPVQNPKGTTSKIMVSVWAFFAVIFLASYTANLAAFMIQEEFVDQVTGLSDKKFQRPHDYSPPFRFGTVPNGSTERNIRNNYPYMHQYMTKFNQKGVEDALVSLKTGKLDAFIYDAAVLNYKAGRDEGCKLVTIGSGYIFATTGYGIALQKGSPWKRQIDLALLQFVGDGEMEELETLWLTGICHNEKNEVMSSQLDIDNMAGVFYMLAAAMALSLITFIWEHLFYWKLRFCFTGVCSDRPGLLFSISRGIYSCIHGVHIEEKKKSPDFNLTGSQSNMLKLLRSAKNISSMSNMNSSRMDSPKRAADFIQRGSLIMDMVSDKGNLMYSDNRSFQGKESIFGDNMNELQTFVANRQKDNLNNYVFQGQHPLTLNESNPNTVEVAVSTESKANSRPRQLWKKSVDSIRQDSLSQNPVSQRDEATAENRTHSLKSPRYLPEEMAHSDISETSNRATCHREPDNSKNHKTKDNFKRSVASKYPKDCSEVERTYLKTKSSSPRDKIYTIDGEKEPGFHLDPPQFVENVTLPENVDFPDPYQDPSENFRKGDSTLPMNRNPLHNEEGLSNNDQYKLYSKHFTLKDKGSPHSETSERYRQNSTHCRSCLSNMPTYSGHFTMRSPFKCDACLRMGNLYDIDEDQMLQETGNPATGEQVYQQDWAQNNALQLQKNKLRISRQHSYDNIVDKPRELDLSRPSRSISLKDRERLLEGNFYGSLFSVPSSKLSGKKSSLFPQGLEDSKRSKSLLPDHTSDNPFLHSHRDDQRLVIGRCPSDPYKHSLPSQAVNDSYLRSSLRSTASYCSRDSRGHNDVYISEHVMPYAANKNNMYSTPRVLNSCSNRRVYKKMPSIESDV

| Compound | IC50 [1] | IC50 (read-out: Binned Activity) |
| --- | --- | --- |
| Cc1ncc(CNC(=O)c2cnc(CNC(=O)c3cc(F)cc(F)c3)c(C)n2)s1 [5-{[(3,5-difluorophenyl)form-amido]methyl}-6-methyl-N-[(2-methyl-1,3-thiazol-5-yl)methyl]pyrazine-2-carboxamide] | 10 µM | > 10 µM |
| Cc1ncc(CNC(=O)c2cnc(CNC(=O)c3cc(F)cc(F)c3)cn2)s1 [5-{[(3,5-difluorophenyl)form-amido]methyl}-N-[(2-methyl-1,3-thiazol-5-yl)methyl]pyrazine-2-carboxamide] | 10 µM | > 10 µM |
| Cc1ncc(CNC(=O)c2ccc(CNC(=O)c3cc(F)cc(F)c3)cn2)s1 [5-{[(3,5-difluorophenyl)form-amido]methyl}-N-[(2-methyl-1,3-thiazol-5-yl)methyl]pyridine-2-carboxamide] | 10 µM | > 10 µM |
| Cc1ncc(CNC(=O)c2cnc(CNC(=O)c3cccc(Cl)c3C)c(C)n2)s1 [5-{[(3-chloro-2-methylphenyl)formamido]methyl}-6-methyl-N-[(2-methyl-1,3-thiazol-5-yl)methyl]pyrazine-2-carboxamide] | 10 µM | > 10 µM |
| Cc1ncc(CNC(=O)c2ccc(CNC(=O)c3cccc(Cl)c3C)cn2)s1 [5-{[(3-chloro-2-methylphenyl)formamido]methyl}-N-[(2-methyl-1,3-thiazol-5-yl)methyl]pyridine-2-carboxamide] | 10 µM | > 10 µM |
| Cc1ncc(CNC(=O)c2cnc(CNC(=O)c3cccc(Cl)c3)cn2)s1 [5-{[(3-chlorophenyl)formamido]methyl}-N-[(2-methyl-1,3-thiazol-5-yl)methyl]pyrazine-2-carboxamide] | 10 µM | > 10 µM |
| Cc1ncc(CNC(=O)c2cnc(CNC(=O)c3cccc(C#N)c3)c(C)n2)s1 [5-{[(3-cyanophenyl)formamido]methyl}-6-methyl-N-[(2-methyl-1,3-thiazol-5-yl)methyl]pyrazine-2-carboxamide] | 10 µM | > 10 µM |
| Cc1ncc(CNC(=O)c2cnc(CNC(=O)c3cccc(C#N)c3)cn2)s1 [5-{[(3-cyanophenyl)formamido]methyl}-N-[(2-methyl-1,3-thiazol-5-yl)methyl]pyrazine-2-carboxamide] | 10 µM | > 10 µM |
| Cc1ncc(CNC(=O)c2ccc(CNC(=O)c3cccc(C#N)c3)cn2)s1 [5-{[(3-cyanophenyl)formamido]methyl}-N-[(2-methyl-1,3-thiazol-5-yl)methyl]pyridine-2-carboxamide] | 10 µM | > 10 µM |
| Cc1ncc(CNC(=O)c2cnc(CNC(=O)c3cccc(F)c3)cn2)s1 [5-{[(3-fluorophenyl)formamido]methyl}-N-[(2-methyl-1,3-thiazol-5-yl)methyl]pyrazine-2-carboxamide] | 10 µM | > 10 µM |
| Cc1ncc(CNC(=O)c2ccc(CNC(=O)c3cccc(F)c3)cn2)s1 [5-{[(3-fluorophenyl)formamido]methyl}-N-[(2-methyl-1,3-thiazol-5-yl)methyl]pyridine-2-carboxamide] | 10 µM | > 10 µM |
| Cc1ncc(CNC(=O)c2cnc(CNC(=O)c3cc(Cl)ccc3F)c(C)n2)s1 [5-{[(5-chloro-2-fluorophenyl)formamido]methyl}-6-methyl-N-[(2-methyl-1,3-thiazol-5-yl)methyl]pyrazine-2-carboxamide] | 10 µM | > 10 µM |
| Cc1ncc(CNC(=O)c2cnc(CNC(=O)c3cc(Cl)ccc3F)cn2)s1 [5-{[(5-chloro-2-fluorophenyl)formamido]methyl}-N-[(2-methyl-1,3-thiazol-5-yl)methyl]pyrazine-2-carboxamide] | 10 µM | > 10 µM |
| Cc1ncc(CNC(=O)c2ccc(CNC(=O)c3cc(Cl)ccc3F)cn2)s1 [5-{[(5-chloro-2-fluorophenyl)formamido]methyl}-N-[(2-methyl-1,3-thiazol-5-yl)methyl]pyridine-2-carboxamide] | 10 µM | > 10 µM |
| O=C(NC1CCS(=O)(=O)C1)c1ccc(CNS(=O)(=O)c2ccc(F)c(Cl)c2)nc1 (stereo not shown) [6-(3-chloro-4-fluorobenzenesulfon-amidomethyl)-N-(1,1-dioxo-1λ^6-thiolan-3-yl)pyridine-3-carboxamide] | 10 µM | > 10 µM |
| O=C(NCc1ccno1)c1ccc(CNS(=O)(=O)c2ccc(F)c(Cl)c2)nc1 [6-(3-chloro-4-fluorobenzenesulfon-amidomethyl)-N-(1,2-oxazol-5-ylmethyl)pyridine-3-carboxamide] | 10 µM | > 10 µM |
| O=C(NCc1cocn1)c1ccc(CNS(=O)(=O)c2ccc(F)c(Cl)c2)nn1 [6-(3-chloro-4-fluorobenzenesulfon-amidomethyl)-N-(1,3-oxazol-4-ylmethyl)pyridazine-3-carboxamide] | 10 µM | > 10 µM |
| O=C(NCc1cocn1)c1ccc(CNS(=O)(=O)c2ccc(F)c(Cl)c2)nc1 [6-(3-chloro-4-fluorobenzenesulfon-amidomethyl)-N-(1,3-oxazol-4-ylmethyl)pyridine-3-carboxamide] | 10 µM | > 10 µM |

| Compound | IC50 [1] | IC50 (read-out: Binned Activity) |
| --- | --- | --- |
| O=C(NCc1nccs1)c1ccc(CNS(=O)(=O)c2ccc(F)c(Cl)c2)nc1 [6-(3-chloro-4-fluorobenzenesulfon-amidomethyl)-N-(1,3-thiazol-2-ylmethyl)pyridine-3-carboxamide] | 10 µM | > 10 µM |
| O=C(NCc1cncs1)c1ccc(CNS(=O)(=O)c2ccc(F)c(Cl)c2)nn1 [6-(3-chloro-4-fluorobenzenesulfon-amidomethyl)-N-(1,3-thiazol-5-ylmethyl)pyridazine-3-carboxamide] | 10 µM | > 10 µM |
| O=C(NCc1cncs1)c1ccc(CNS(=O)(=O)c2ccc(F)c(Cl)c2)nc1 [6-(3-chloro-4-fluorobenzenesulfon-amidomethyl)-N-(1,3-thiazol-5-ylmethyl)pyridine-3-carboxamide] | 10 µM | > 10 µM |
| O=C(NCc1ccco1)c1ccc(CNS(=O)(=O)c2ccc(F)c(Cl)c2)nn1 [6-(3-chloro-4-fluorobenzenesulfon-amidomethyl)-N-(furan-2-ylmethyl)pyridazine-3-carboxamide] | 10 µM | > 10 µM |
| O=C(NCc1ccoc1)c1ccc(CNS(=O)(=O)c2ccc(F)c(Cl)c2)nn1 [6-(3-chloro-4-fluorobenzenesulfon-amidomethyl)-N-(furan-3-ylmethyl)pyridazine-3-carboxamide] | 10 µM | > 10 µM |
| O=C(NCc1cnccn1)c1ccc(CNS(=O)(=O)c2ccc(F)c(Cl)c2)nn1 [6-(3-chloro-4-fluorobenzenesulfon-amidomethyl)-N-(pyrazin-2-ylmethyl)pyridazine-3-carboxamide] | 10 µM | > 10 µM |
| O=C(NCc1cnccn1)c1ccc(CNS(=O)(=O)c2ccc(F)c(Cl)c2)nc1 [6-(3-chloro-4-fluorobenzenesulfon-amidomethyl)-N-(pyrazin-2-ylmethyl)pyridine-3-carboxamide] |  | 0.1 to 1 µM |
| O=C(NCc1ccccn1)c1ccc(CNS(=O)(=O)c2ccc(F)c(Cl)c2)nn1 [6-(3-chloro-4-fluorobenzenesulfon-amidomethyl)-N-(pyridin-2-ylmethyl)pyridazine-3-carboxamide] | 10 µM | > 10 µM |
| O=C(NCc1ccccn1)c1ccc(CNS(=O)(=O)c2ccc(F)c(Cl)c2)nc1 [6-(3-chloro-4-fluorobenzenesulfon-amidomethyl)-N-(pyridin-2-ylmethyl)pyridine-3-carboxamide] | 10 µM | > 10 µM |
| O=C(NCc1cccnc1)c1ccc(CNS(=O)(=O)c2ccc(F)c(Cl)c2)nn1 [6-(3-chloro-4-fluorobenzenesulfon-amidomethyl)-N-(pyridin-3-ylmethyl)pyridazine-3-carboxamide] | 10 µM | > 10 µM |
| O=C(NCc1cccnc1)c1ccc(CNS(=O)(=O)c2ccc(F)c(Cl)c2)nc1 [6-(3-chloro-4-fluorobenzenesulfon-amidomethyl)-N-(pyridin-3-ylmethyl)pyridine-3-carboxamide] |  | > 10 µM |
| O=C(NCc1ccncc1)c1ccc(CNS(=O)(=O)c2ccc(F)c(Cl)c2)nn1 [6-(3-chloro-4-fluorobenzenesulfon-amidomethyl)-N-(pyridin-4-ylmethyl)pyridazine-3-carboxamide] | 10 µM | > 10 µM |
| O=C(NCc1ccncc1)c1ccc(CNS(=O)(=O)c2ccc(F)c(Cl)c2)nc1 [6-(3-chloro-4-fluorobenzenesulfon-amidomethyl)-N-(pyridin-4-ylmethyl)pyridine-3-carboxamide] | 10 µM | > 10 µM |
| O=C(NCc1ncccn1)c1ccc(CNS(=O)(=O)c2ccc(F)c(Cl)c2)nn1 [6-(3-chloro-4-fluorobenzenesulfon-amidomethyl)-N-(pyrimidin-2-ylmethyl)pyridazine-3-carboxamide] | 10 µM | > 10 µM |
| O=C(NCc1ncccn1)c1ccc(CNS(=O)(=O)c2ccc(F)c(Cl)c2)nc1 [6-(3-chloro-4-fluorobenzenesulfon-amidomethyl)-N-(pyrimidin-2-ylmethyl)pyridine-3-carboxamide] | 10 µM | > 10 µM |
| O=C(NCc1ccncn1)c1ccc(CNS(=O)(=O)c2ccc(F)c(Cl)c2)nn1 [6-(3-chloro-4-fluorobenzenesulfon-amidomethyl)-N-(pyrimidin-4-ylmethyl)pyridazine-3-carboxamide] | 10 µM | > 10 µM |
| O=C(NCc1ccncn1)c1ccc(CNS(=O)(=O)c2ccc(F)c(Cl)c2)nc1 [6-(3-chloro-4-fluorobenzenesulfon-amidomethyl)-N-(pyrimidin-4-ylmethyl)pyridine-3-carboxamide] | 10 µM | > 10 µM |
| O=C(NCc1cncnc1)c1ccc(CNS(=O)(=O)c2ccc(F)c(Cl)c2)nn1 [6-(3-chloro-4-fluorobenzenesulfon-amidomethyl)-N-(pyrimidin-5-ylmethyl)pyridazine-3-carboxamide] | 10 µM | > 10 µM |
